Key:
[1] = test system: ^52Mn^2+ pancreatic uptake; test: Pharmacological manipulation of ^52Mn^2+ pancreatic uptake in vivo (PET and biodistribution); design: species or system ICR mice
Procedure: To investigate the specificity of ^52Mn^2+ for beta cells, a series of studies were performed where ^52Mn^2+ uptake was manipulated through the pharmacologic stimulation or inhibition of the insulin secretory pathway. In these experiments, 0.74-1.85 MBq (20-50 μCi) of ^52Mn^2+ was administered IV into either female ICR or C57BL/6J mice and static PET scans were acquired at one hour post injection. During tracer administration, mice were awake. Mice were only anaesthetized by isoflurane (1%) immediately before PET imaging.
To corroborate the correlation between ^52Mn^2+ pancreatic uptake and the mechanism of insulin release in beta cells, the insulin secretory pathways were stimulated in vivo using glucose and glibendamide (Tocris Biosciences, Bristol, UK), which promotes insulin release in beta cells via blockade of ATP-sensitive potassium channel (KATP). Mice were injected intraperitoneally (IP) with 100 μL of glucose (1 g/kg) or glucose (1 g/kg)+glibenclamide (5 mg/kg) in PBS, 15 min before the IV injection of 0.74-1.85 MBq (20-50 μCi)^52Mn^2+. Static PET scans were acquired one hour after the injection of the radiotracer, after which ex vivo biodistribution was performed.
Whole-body PET scans were acquired at one hour post injection, after which ex vivo biodistribution was performed.

[2] = test system: isolated ob/ob mouse islets; test: Uptake of ^52Mn^2+ in isolated islets under stimulatory or inhibitory conditions; format: cell-based; conditions: 15 min incubation
Procedure: Mouse pancreatic islets were isolated by collagenase digestion. Briefly, mice were placed under shallow anesthesia and sacrificed via cervical dislocation. The mouse common bile duct was cannulized and 3-5 mL of an ice-cold solution containing type XI collagenase (0.5 mg/mL; Sigma Aldrich, St. Louis, Mo.) and bovine serum albumin (BSA; 0.2 mg/mL; Sigma Aldrich, St. Louis, Mo.) in Hank's balanced salt solution (HBSS; Invitrogen, Carlsbad, Calif.) was injected into the mouse pancreas. After inflation, the pancreas was removed, placed in a glass vial containing 5 mL of the collagenase solution, and incubated in a shaking water bath at 37° C. Samples were digested for approximately 30 min after which the digests were centrifuged at 50×g for 2 min and islet pellets were washed three times with 30 mL of an ice-cold BSA (0.2 mg/mL) in HBSS solution. The pellet was resuspended and islets handpicked into 35 mm petri dishes. Following isolation, islets were placed in RPMI1640 media supplemented with penicillin (100 U/mL; Invitrogen), streptomycin (100 μg/mL; Invitrogen), and FBS [10% (wt/vol); Sigma] and incubated overnight at 37° C. in a 5% CO2 atmosphere.
The uptake of ^52Mn^2+ by murine islets of Langerhans was determined under several stimulatory or inhibitory conditions. Batches of 50 islets were transferred into 0.45 μm filtered bottom 1 mL centrifuge vials (Thermo Fisher Scientific, Grand Island, N.Y.), 500 μL of Krebs-Ringer buffer (KRB: 118 mM NaCl, 5.4 mM KCl, 2.4 mM CaCl, 1.2 mM MgSO4, 1 mM […], 20 mM HEPES; pH 7.4) containing a low glucose concentration (1 mM D-glucose) were added and the islets incubated for 30 min at 37° C. After removing the supernatant following centrifugation at 50×g for 5 min, 250 μL of KRB containing glucose, diazoxide (50 μM; Tocris Biosciences, Bristol, UK), or tolbutamide (250 μM; Selleckchem, Houston, Tex.) were added, and the vials were spiked with 370 kBq (10 μCi) of ^52Mn^2+. After 15 min of incubation, the solutions were filtered and islets were washed three times with KRB. The ^52Mn^2+ radioactivity in the islet pellets were measured in an automated gamma counter (Perkin Elmer).

[3] = OLINDA dosimetry calculations for Mn-51 and daughter Cr-51; design: species or system human; conditions: OLINDA input
Procedure: Due to the rapid blood clearance of Mn^2+, OLINDA (Organ Level INternal Dose Assessment) dosimetry calculations were performed assuming instant compartment localization with organ activity fractions equal to those measured by ex vivo biodistribution herein. Based on the previously measured lengthy organ residence times of Mn^2+, it was also assumed that the effective organ clearance half-life (Ter) was equal to the radioactive half-life of Mn-51 (t1/2: 45.6 min). It was also assumed that Mn-51 injections were 100% radionuclidically pure. In regards to the daughter isotope, Cr-51 (t1/2: 27.7 d), it was assumed that the activity remained in same organ compartments as the parent Mn-51 biodistribution without biological clearance. Standard radiation weighting factors were used (γ=1, β=1). Based on these assumptions, effective dose (ED) and effective dose equivalent (EDE) (units of mSv/MBq) were calculated for a standard adult male and female.

[4] = test system: pancreatic uptake of ^52Mn^2+; test: One hour biodistribution of ^52Mn^2+ in anesthetized (1% isoflurane) or awake mice; format: in vivo; conditions: 1% isoflurane vs awake, 1 h post injection, regardless of administration regime or glucose stimulation
Procedure: Previous reports have shown that most volatile anesthetics, including isoflurane, impair insulin secretion by inhibiting the deactivation of KATP channels. Plausibly, the observed decrease in pancreatic uptake of ^52Mn^2+ resulted from mice being anesthetized through the full extent of the studies during the dynamic PET scans. To investigate the impact of isoflurane anesthesia on pancreatic uptake, one hour post injection biodistribution experiments were performed under different administration conditions in either anesthetized (1% isoflurane) or awake mice.

[5] = ^52Mn^2+ PET and biodistribution in STZ type-1 diabetes model; format: in vivo, ICR mice; conditions: ICR female mice, single STZ 180 mg/kg IP, four days after induction
Procedure: Type 1 diabetes was induced in female ICR mice via a single IP injection of 180 mg/kg streptozotocin (STZ; MP Biomedical, LLC, Santa Ana, Calif.), a toxin that selectively destroys pancreatic beta cell. The injectable STZ solution (12.5 mg/mL) was prepared freshly in phosphate buffered saline (PBS). The weight of each mouse was measured daily, and blood glucose levels were recorded every other day with a glucometer (TRUEresult, Trividia Health Inc., Fort Lauderdale, Fla.) using blood samples collected from the tail vein. Mice were considered diabetic after two consecutive blood glucose readings above 250 mg/dL and were used for PET imaging studies one week after the injection of STZ. To evaluate ^52Mn^2+ pancreatic uptake on diabetic mice, 0.74 MBq (20 μCi) of activity were administered IV and static PET images recorded one hour after administration of the tracer. Ex vivo biodistribution was carried out following PET acquisition.

Q: For `CC1=NS(=O)(=O)c2cc(Cl)ccc2N1` [diazoxide, 7-Chloro-3-methyl-4H-1,2,4-benzothiadiazine 1,1-dioxide], which “decline in ^52Mn^2+ pancreatic uptake vs control” value ([1]; 20 mg/kg IP 10-15 min before IV ^52Mn^2+ bolus, PET 1 h post injection) is on record?
A: Its value is 44%.

Q: What about the “pancreatic ^52Mn^2+ uptake after drug (PET quantification)” value ([1]; 20 mg/kg IP 10-15 min before IV ^52Mn^2+ bolus, PET 1 h post injection, control 5.13±0.36 SUV) of the same compound?
A: The value was 2.85±0.92 SUV.

Q: And the “effect on PET signal within the pancreas” value ([1]; 20 mg/kg IP before ^52Mn^2+ bolus)?
A: Its value is “significant (P<0.0001) abrogation”.

Q: And the “effect on glucose-stimulated ^52Mn^2+ uptake by islets” value ([2]; diazoxide 50 μM added to 10 mM glucose)?
A: Its value is “blocked”.

Q: Which “effect on ^52Mn^2+ uptake by islets” value ([2]; 10 mM glucose vs 1 mM glucose) does the source give for `OC[C@H]1OC(O)[C@H](O)[C@@H](O)[C@@H]1O` (some centres unmarked) [glucose] here?
A: The value was “significantly enhanced”.

Q: With `CCCCNC(=O)NS(=O)(=O)c1ccc(C)cc1` [tolbutamide] as the compound, how does the “effect on ^52Mn^2+ retention by islets” value ([2]; glucose and tolbutamide 250 μM) read?
A: Its value is “significantly higher”.

Q: With `[51Cr]` [Cr-51] as the compound, how does the “Number of disintigrations, Total Body” value ([3]; Total Body) read?
A: The value was 7.20E+02 MBq-h/MBq.

Q: And the “Number of disintigrations, Adrenals” value ([3]; source organ Adrenals)?
A: The value was 0.00E+00 MBq-h/MBq.

Q: What about the “Number of disintigrations, Brain” value ([3]; source organ Brain) of the same compound?
A: Its value is 3.93E+00 MBq-h/MBq.

Q: And the “Number of disintigrations, Breasts” value ([3]; source organ Breasts)?
A: The value was 0.00E+00 MBq-h/MBq.

Q: And the “Number of disintigrations, Cortical Bone” value ([3]; source organ Cortical Bone)?
A: The value was 7.48E−01 MBq-h/MBq.

Q: And the “Number of disintigrations, Gallbladder Contents” value ([3]; source organ Gallbladder Contents)?
A: Its value is 0.00E+00 MBq-h/MBq.

Q: And the “Number of disintigrations, Heart Contents” value ([3]; source organ Heart Contents)?
A: The value was 0.00E+00 MBq-h/MBq.

Q: And the “Number of disintigrations, Heart Wall” value ([3]; source organ Heart Wall)?
A: Its value is 2.10E+01 MBq-h/MBq.

Q: And the “Number of disintigrations, Kidneys” value ([3]; source organ Kidneys)?
A: The value was 6.12E+01 MBq-h/MBq.

Q: What about the “Number of disintigrations, LLI” value ([3]; source organ LLI) of the same compound?
A: The value was 0.00E+00 MBq-h/MBq.

Q: And the “Number of disintigrations, Liver” value ([3]; source organ Liver)?
A: The value was 5.58E+01 MBq-h/MBq.

Q: And the “Number of disintigrations, Lungs” value ([3]; source organ Lungs)?
A: The value was 1.49E+01 MBq-h/MBq.

Q: What about the “Number of disintigrations, Muscle” value ([3]; source organ Muscle) of the same compound?
A: Its value is 1.93E+00 MBq-h/MBq.

Q: And the “Number of disintigrations, Ovaries” value ([3]; source organ Ovaries)?
A: The value was 0.00E+00 MBq-h/MBq.

Q: And the “Number of disintigrations, Pancreas” value ([3]; source organ Pancreas)?
A: Its value is 3.64E+01 MBq-h/MBq.

Q: What about the “Number of disintigrations, Red Marrow” value ([3]; source organ Red Marrow) of the same compound?
A: Its value is 0.00E+00 MBq-h/MBq.

Q: What about the “Number of disintigrations, Small Intestine” value ([3]; source organ Small Intestine) of the same compound?
A: The value was 0.00E+00 MBq-h/MBq.

Q: What about the “Number of disintigrations, Spleen” value ([3]; source organ Spleen) of the same compound?
A: The value was 8.12E+00 MBq-h/MBq.

Q: What about the “Number of disintigrations, Stomach” value ([3]; source organ Stomach) of the same compound?
A: The value was 1.23E+01 MBq-h/MBq.

Q: What about the “Number of disintigrations, Testes” value ([3]; source organ Testes) of the same compound?
A: Its value is 0.00E+00 MBq-h/MBq.

Q: And the “Number of disintigrations, Thymus” value ([3]; source organ Thymus)?
A: Its value is 0.00E+00 MBq-h/MBq.

Q: What about the “Number of disintigrations, Thyroid” value ([3]; source organ Thyroid) of the same compound?
A: The value was 0.00E+00 MBq-h/MBq.

Q: And the “Number of disintigrations, Trabecular Bone” value ([3]; source organ Trabecular Bone)?
A: Its value is 0.00E+00 MBq-h/MBq.

Q: What about the “Number of disintigrations, ULI” value ([3]; source organ ULI) of the same compound?
A: Its value is 5.70E+00 MBq-h/MBq.

Q: And the “Number of disintigrations, Urinary Bladder Contents” value ([3]; source organ Urinary Bladder Contents)?
A: The value was 0.00E+00 MBq-h/MBq.

Q: And the “Number of disintigrations, Uterus/Uterine Wall” value ([3]; source organ Uterus/Uterine Wall)?
A: The value was 0.00E+00 MBq-h/MBq.

Q: For `FC(F)OC(Cl)C(F)(F)F` (centres unmarked) [Isoflurane], which “effect on accumulation of ^52Mn^2+ in the pancreas” value [4] is on record?
A: Its value is “significantly inhibited”.

Q: With `CN(N=O)C(=O)N[C@@H]1[C@@H](O)[C@H](O)[C@@H](CO)O[C@@H]1O` [STZ, reference compound] as the compound, how does the “blood glucose after induction” value [5] read?
A: The value was over 250 mg/dL.

Q: Which “effect on pancreatic SUV values” ([1]; glibenclamide 5 mg/kg IP (with glucose 1 g/kg) 15 min before ^52Mn^2+, 1 h post injection) does the source give for `COc1ccc(Cl)cc1C(=O)NCCc1ccc(S(=O)(=O)NC(=O)NC2CCCCC2)cc1` [glibenclamide] here?
A: The value was “significant enhancement”.
